From US7638540B2, “Benzofuran compound and medicinal composition containing the same” (The New Industry Research Organization, priority 2003, dated 2009)

melting point [°C] | Compound
172 to 174 | CCN(CC)C(=O)/C=C(\C)c1ccc2oc(C(=O)Nc3cccc(OC)c3)c(NC(=O)/C(C#N)=C(/C)O)c2c1 [Example 189, 3-(2-cyano-3-hydroxy-(Z)-2-butenoylamino)-5-((E)-2-diethylcarbamoyl-1-methylvinyl)-benzofurane-2-carboxylic acid(3-methoxyphenyl)amide]
236.3 to 238.9 | Cc1oncc1C(=O)Nc1c(C(=O)c2ccc(C#N)cc2)oc2ccc(Br)cc12 [Example 73, N-[5-bromo-2-(4-cyanobenzoyl)benzofuran-3-yl]-5-methylisoxazole-4-carboxamide]
214.4 to 215.1 | CC(=O)c1oc2ccc(Br)cc2c1NC(=O)CC#N [Example 193, N-(2-acetyl-5-bromobenzofuran-3-yl)-2-cyanoacetamide]
129 to 131 | CC(=O)c1oc2ccc(Br)cc2c1NC(=O)/C=C/CCc1ccccc1 [Example 175, (E)-5-phenyl-2-penteneoic acid (2-acetyl-5-bromobenzofuran-3-yl)amide]
195.5 to 197 | COc1ccc(C(=O)Nc2c(Cl)oc3ccc(Br)cc23)cc1 [Example 200, N-(5-bromo-2-chlorobenzofuran-3-yl)-4-methoxybenzamide]
269.3 to 271.2 | C/C(O)=C(\C#N)C(=O)Nc1c(C(=O)c2ccc(C#N)cc2)oc2ccc(Br)cc12 [Example 100, (Z)-N-[5-bromo-2-(4-cyanobenzoyl)benzofuran-3-yl]-2-cyano-3-hydroxy-2-butenamide]

More lines, now with the values behind:

Compound | melting point [°C]
CCN(CC)C(=O)/C=C(\C)c1ccc2oc(C(=O)Nc3cccc(OC)c3)c(NC(=O)c3cnoc3C)c2c1 [Example 186, (E)-5-methyl-isoxazole-4-carboxylic acid [5-((E)-2-diethylcarbamoyl-1-methylvinyl)-2-(3-methoxyphenylcarbamoyl)benzofuran-3-yl]amide] | 204 to 206
COc1cccc(NC(=O)/C=C(\C)c2cc3c(Br)ccc(OCCN(C)C)c3o2)c1 [Example 39, (E)-3-[4-bromo-7-(2-dimethylaminoethoxy)benzofuran-2-yl]-N-(3-methoxyphenyl)-2-butenamide] | 176.4 to 181.5
CC(=O)c1cc2cc(/C(C)=C/C(=O)N3CCOCC3)ccc2o1 [Example 27, (E)-3-(2-acetylbenzofuran-5-yl)-1-morpholino-2-buten-1-one] | 138.9 to 141.8
CC(=O)Nc1c(C(=O)/C=C/N(C)C)oc2ccc(Br)cc12 [Example 194, (E)-N-[5-bromo-2-(3-dimethylaminoacryloyl)benzofuran-3-yl]acetamide] | 221.1 to 222
O=C(/C=C/c1ccccc1)Nc1c(Cl)oc2ccc(Br)cc12 [Example 180, (E)-N-(5-bromo-2-chlorobenzofuran-3-yl)-3-phenylacrylamide] | 248.7 to 250.3
COc1ccc2oc(-c3csc(-c4ccccc4)n3)c(-c3ccc(Cl)cc3)c2c1 [Example 215, 4-[3-(4-chlorophenyl)-5-methoxybenzofuran-2-yl]-2-phenylthiazole] | 151.3 to 153.3
COc1ccc(CCNC(=O)/C=C(\C)c2ccc(C(=O)c3oc4c(OC)cccc4c3NC(=O)c3cnoc3C)cc2)cc1OC [Example 84, (E)-N-[2-(4-{2-[2-(3,4-dimethoxyphenyl)ethylcarbamoyl]-1-methylvinyl}benzoyl)-7-methoxybenzofuran-3-yl]-5-methylisoxazole-4-carboxamide] | 237.5 to 239.1
COc1ccc(NC(=O)/C(C#N)=C(/C)O)c2cc(C(C)=O)oc12 [Example 112, (Z)-N-(2-acetyl-7-methoxybenzofuran-4-yl)-2-cyano-3-hydroxy-2-butenamide] | 243.4 to 246.4
CCN(CC)C(=O)/C=C(\C)c1ccc(OC(c2ccccc2)c2ccccc2)c2oc(C(C)=O)cc12 [Example 4, (E)-3-(2-acetyl-7-benzhydryloxybenzofuran-4-yl)-N,N-diethyl-2-butenamide] | 163.3 to 165.2
